In ChEMBL document CHEMBL5465560, “Selectivity Literature for EUbOPEN Chemogenomic Library” (2024):
One block for each molecule: values may come before it.

Experiments:
[1] = tested on: Epidermal growth factor receptor (Homo sapiens), P00533 [UNDEFINED MUTATION]; test: Selectivity interaction (Ambit KINOMEscan and KiNATiv profiling in Jurkat cells) EUB0000090b EGFR; format: cell-based; conditions: at 1 µM
[2] = target: T1, Inhibitor of nuclear factor kappa-B kinase subunit epsilon (Homo sapiens) (UniProt Q14164); test: Selectivity interaction (ActivX KiNativ screen (kinase selectivity in THP-1 cell lysates)) EUB0000639a IKBKE; format: subcellular; conditions: lysate, at 0.01 µM
T1 sequence (whole entry): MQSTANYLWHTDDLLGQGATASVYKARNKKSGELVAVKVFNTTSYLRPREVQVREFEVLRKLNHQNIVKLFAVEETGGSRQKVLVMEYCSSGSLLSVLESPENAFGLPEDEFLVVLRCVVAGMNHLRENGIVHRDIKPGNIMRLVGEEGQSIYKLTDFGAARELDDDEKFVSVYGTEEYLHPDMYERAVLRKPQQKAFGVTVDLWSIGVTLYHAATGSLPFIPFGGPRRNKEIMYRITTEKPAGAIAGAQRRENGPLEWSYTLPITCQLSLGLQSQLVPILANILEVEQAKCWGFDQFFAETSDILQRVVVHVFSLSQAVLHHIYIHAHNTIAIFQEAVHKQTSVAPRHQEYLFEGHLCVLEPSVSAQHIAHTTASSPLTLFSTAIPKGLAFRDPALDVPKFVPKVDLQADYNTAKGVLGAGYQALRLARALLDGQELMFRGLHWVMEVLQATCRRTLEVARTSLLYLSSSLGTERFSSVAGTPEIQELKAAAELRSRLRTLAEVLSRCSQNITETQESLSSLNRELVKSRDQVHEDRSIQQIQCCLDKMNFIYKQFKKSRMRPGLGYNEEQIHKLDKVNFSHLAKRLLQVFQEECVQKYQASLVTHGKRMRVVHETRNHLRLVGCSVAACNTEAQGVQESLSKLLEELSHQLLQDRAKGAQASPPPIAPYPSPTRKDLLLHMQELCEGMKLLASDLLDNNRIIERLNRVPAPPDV

[3] = target: Calcium/calmodulin-dependent protein kinase type 1 (Homo sapiens) (UniProt Q14012); conditions: at 10 µM
Sequence of Calcium/calmodulin-dependent protein kinase type 1 (Homo sapiens) (Q14012 whole entry, looked up): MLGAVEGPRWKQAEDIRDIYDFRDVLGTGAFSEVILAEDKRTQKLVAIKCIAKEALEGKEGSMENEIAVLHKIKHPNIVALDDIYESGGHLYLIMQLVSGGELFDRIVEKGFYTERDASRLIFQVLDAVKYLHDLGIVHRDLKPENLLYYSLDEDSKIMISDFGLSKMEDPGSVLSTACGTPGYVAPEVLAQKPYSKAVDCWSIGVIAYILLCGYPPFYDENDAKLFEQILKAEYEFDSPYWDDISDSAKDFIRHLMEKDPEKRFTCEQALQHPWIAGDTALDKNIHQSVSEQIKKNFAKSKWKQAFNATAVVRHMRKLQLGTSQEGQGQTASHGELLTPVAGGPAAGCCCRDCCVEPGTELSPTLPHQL

[4] = target: T2, Eukaryotic elongation factor 2 kinase (Homo sapiens) (UniProt O00418); test: Selectivity interaction (ProQinase) EUB0000171b EEF2K
T2 sequence (whole entry): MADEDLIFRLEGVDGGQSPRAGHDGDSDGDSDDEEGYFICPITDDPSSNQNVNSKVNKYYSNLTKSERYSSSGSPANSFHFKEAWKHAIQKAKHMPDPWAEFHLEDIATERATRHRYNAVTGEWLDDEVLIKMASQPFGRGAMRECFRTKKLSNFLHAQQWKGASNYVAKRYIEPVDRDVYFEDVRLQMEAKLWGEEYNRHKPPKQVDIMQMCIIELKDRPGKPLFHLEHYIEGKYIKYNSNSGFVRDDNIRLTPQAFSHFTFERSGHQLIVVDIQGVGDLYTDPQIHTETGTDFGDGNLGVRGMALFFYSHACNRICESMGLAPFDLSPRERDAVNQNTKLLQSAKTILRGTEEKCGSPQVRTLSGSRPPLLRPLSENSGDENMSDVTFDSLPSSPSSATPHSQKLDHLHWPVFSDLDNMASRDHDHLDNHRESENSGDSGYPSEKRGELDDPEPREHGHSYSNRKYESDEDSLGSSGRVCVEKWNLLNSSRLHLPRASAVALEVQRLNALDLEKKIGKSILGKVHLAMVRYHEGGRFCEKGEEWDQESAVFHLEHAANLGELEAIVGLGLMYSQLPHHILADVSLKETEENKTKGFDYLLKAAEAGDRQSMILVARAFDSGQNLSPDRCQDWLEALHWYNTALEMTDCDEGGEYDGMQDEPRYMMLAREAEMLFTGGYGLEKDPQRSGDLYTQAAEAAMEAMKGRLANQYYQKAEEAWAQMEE

[5] = target: Serine/threonine-protein kinase 38-like (Homo sapiens) (UniProt Q9Y2H1); test: Selectivity interaction (KinomeScan (DiscoverX)) EUB0001619a STK38L; conditions: at 1 µM
Sequence of Serine/threonine-protein kinase 38-like (Homo sapiens) (Q9Y2H1 2-464 limits assumed): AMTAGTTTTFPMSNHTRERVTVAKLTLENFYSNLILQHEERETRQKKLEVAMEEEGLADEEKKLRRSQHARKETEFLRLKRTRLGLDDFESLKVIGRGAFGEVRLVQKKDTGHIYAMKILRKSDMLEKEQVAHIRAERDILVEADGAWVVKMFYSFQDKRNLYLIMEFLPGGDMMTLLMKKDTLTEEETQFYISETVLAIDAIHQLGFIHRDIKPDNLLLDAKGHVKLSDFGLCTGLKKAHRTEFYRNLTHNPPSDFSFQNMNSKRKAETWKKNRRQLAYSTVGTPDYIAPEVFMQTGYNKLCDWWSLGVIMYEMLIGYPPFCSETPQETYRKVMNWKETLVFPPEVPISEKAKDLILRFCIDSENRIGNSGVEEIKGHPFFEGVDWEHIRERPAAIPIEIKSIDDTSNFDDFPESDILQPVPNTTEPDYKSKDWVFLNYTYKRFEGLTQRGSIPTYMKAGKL

[6] = target: Tyrosine-protein kinase Yes (Homo sapiens) (UniProt P07947); test: Selectivity interaction (KinomeScan (DiscoverX)) EUB0001619a YES1; conditions: at 1 µM
Sequence of Tyrosine-protein kinase Yes (Homo sapiens) (P07947 2-543 limits assumed): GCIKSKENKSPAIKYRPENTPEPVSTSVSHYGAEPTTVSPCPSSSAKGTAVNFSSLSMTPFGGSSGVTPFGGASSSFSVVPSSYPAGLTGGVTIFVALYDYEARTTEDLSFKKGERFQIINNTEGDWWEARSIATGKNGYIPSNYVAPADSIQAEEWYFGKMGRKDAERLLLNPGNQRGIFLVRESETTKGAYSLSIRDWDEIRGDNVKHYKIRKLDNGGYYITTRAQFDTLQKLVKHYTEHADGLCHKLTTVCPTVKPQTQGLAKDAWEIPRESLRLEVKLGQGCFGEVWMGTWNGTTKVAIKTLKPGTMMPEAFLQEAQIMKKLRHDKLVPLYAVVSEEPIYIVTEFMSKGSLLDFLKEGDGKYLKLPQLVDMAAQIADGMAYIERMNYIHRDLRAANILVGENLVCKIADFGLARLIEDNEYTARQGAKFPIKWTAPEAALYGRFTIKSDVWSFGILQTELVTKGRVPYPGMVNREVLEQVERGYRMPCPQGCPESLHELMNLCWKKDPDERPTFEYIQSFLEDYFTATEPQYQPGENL

[7] = target: Serine/threonine-protein kinase MRCK gamma (Homo sapiens) (UniProt Q6DT37); test: Selectivity interaction (KinomeScan (DiscoverX)) EUB0000607a CDC42BPG; conditions: at 10 µM
Sequence of Serine/threonine-protein kinase MRCK gamma (Homo sapiens) (Q6DT37 whole entry): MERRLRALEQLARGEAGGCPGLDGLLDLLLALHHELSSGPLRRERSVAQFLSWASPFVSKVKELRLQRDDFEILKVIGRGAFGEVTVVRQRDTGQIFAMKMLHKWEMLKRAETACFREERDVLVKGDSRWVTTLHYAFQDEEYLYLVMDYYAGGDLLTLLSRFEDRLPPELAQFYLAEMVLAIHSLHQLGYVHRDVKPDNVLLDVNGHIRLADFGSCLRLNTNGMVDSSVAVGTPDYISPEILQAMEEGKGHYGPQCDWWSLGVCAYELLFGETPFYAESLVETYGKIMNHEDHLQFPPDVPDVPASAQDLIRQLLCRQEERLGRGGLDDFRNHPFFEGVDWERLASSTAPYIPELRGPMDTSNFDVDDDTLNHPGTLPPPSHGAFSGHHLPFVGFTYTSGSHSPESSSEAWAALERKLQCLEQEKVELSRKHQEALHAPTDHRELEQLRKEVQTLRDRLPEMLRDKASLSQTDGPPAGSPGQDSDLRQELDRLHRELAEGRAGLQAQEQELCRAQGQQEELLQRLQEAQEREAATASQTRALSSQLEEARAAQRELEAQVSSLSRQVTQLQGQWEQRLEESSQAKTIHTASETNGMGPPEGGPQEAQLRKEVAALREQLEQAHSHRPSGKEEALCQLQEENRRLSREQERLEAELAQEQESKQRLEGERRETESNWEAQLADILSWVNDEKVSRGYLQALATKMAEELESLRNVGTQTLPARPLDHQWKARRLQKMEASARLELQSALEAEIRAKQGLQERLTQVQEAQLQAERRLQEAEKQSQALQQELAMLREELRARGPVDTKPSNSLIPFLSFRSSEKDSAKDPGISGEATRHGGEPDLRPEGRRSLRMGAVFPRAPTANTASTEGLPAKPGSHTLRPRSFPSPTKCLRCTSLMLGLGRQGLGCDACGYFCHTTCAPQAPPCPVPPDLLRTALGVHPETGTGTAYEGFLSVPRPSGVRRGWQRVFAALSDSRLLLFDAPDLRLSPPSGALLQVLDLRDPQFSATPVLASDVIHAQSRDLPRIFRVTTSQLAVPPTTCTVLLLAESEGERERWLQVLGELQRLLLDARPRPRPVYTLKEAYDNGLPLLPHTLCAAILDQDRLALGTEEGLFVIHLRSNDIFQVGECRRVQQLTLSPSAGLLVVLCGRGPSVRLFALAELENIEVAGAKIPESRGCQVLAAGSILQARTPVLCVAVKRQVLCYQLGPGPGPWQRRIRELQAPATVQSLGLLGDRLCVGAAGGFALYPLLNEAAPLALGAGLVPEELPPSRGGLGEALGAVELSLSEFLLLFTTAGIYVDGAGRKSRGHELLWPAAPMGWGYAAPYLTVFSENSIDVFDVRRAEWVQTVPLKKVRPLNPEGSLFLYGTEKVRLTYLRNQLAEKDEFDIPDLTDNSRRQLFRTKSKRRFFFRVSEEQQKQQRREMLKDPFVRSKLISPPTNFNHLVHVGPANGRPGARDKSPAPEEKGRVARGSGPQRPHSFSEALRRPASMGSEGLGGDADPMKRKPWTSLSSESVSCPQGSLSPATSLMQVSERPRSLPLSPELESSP

[8] = target: T3, Serine/threonine-protein kinase Nek9 (Homo sapiens) (UniProt Q8TD19); test: Selectivity interaction (SelectScreen profiling (Invitrogen)) EUB0000607a NEK9; conditions: at 2 µM
T3 sequence (whole entry): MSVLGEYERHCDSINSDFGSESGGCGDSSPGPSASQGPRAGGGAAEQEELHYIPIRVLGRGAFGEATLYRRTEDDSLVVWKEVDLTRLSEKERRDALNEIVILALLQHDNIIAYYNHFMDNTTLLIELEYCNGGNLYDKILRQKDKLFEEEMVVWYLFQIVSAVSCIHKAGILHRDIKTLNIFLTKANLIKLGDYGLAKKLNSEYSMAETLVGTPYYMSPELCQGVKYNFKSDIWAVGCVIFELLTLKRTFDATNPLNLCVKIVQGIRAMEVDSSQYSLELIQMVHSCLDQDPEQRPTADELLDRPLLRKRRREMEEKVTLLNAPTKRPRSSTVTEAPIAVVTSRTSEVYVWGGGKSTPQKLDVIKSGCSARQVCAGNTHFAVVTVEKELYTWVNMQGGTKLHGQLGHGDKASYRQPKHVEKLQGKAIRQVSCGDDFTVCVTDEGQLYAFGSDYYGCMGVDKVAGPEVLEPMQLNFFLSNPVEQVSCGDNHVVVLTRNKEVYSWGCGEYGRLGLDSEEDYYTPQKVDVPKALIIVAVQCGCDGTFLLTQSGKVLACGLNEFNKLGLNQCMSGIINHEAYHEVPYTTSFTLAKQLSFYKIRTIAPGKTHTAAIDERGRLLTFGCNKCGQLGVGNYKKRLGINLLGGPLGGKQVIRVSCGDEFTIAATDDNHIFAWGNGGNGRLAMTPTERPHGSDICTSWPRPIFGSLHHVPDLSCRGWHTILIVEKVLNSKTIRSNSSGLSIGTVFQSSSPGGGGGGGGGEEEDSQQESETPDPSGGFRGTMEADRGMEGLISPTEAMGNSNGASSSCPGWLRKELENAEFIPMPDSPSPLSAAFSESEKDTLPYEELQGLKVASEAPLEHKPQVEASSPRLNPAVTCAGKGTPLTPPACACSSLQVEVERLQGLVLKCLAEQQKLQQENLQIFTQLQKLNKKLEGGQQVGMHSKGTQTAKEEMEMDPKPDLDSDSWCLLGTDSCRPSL

[9] = target: Ribosomal protein S6 kinase alpha-6 (Homo sapiens, UniProt Q9UK32); test: Selectivity interaction (KinomeScan (DiscoverX)) EUB0000607a RPS6KA6; conditions: at 10 µM
Sequence of Ribosomal protein S6 kinase alpha-6 (Q9UK32 whole entry): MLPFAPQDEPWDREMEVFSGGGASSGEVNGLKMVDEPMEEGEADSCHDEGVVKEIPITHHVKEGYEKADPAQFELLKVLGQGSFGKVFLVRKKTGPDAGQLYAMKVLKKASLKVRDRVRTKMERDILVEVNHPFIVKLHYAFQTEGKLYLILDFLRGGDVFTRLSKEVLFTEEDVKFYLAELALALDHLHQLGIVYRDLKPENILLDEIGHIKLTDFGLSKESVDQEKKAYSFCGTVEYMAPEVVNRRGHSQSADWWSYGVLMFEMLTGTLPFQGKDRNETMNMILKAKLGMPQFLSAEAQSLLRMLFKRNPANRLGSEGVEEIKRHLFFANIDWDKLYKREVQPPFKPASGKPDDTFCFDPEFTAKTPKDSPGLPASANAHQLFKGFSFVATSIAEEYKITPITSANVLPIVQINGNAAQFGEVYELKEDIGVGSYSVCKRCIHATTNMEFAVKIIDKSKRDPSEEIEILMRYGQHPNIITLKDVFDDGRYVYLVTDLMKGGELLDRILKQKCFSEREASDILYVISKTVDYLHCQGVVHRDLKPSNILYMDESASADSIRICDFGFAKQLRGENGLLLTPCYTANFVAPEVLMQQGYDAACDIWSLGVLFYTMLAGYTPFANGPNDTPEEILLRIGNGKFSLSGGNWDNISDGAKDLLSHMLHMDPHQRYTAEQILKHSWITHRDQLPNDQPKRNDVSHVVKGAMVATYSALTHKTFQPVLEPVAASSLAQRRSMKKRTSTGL

Sequence of Epidermal growth factor receptor (Homo sapiens), P00533 [UNDEFINED MUTATION] (P00533 whole entry, looked up, change not shown): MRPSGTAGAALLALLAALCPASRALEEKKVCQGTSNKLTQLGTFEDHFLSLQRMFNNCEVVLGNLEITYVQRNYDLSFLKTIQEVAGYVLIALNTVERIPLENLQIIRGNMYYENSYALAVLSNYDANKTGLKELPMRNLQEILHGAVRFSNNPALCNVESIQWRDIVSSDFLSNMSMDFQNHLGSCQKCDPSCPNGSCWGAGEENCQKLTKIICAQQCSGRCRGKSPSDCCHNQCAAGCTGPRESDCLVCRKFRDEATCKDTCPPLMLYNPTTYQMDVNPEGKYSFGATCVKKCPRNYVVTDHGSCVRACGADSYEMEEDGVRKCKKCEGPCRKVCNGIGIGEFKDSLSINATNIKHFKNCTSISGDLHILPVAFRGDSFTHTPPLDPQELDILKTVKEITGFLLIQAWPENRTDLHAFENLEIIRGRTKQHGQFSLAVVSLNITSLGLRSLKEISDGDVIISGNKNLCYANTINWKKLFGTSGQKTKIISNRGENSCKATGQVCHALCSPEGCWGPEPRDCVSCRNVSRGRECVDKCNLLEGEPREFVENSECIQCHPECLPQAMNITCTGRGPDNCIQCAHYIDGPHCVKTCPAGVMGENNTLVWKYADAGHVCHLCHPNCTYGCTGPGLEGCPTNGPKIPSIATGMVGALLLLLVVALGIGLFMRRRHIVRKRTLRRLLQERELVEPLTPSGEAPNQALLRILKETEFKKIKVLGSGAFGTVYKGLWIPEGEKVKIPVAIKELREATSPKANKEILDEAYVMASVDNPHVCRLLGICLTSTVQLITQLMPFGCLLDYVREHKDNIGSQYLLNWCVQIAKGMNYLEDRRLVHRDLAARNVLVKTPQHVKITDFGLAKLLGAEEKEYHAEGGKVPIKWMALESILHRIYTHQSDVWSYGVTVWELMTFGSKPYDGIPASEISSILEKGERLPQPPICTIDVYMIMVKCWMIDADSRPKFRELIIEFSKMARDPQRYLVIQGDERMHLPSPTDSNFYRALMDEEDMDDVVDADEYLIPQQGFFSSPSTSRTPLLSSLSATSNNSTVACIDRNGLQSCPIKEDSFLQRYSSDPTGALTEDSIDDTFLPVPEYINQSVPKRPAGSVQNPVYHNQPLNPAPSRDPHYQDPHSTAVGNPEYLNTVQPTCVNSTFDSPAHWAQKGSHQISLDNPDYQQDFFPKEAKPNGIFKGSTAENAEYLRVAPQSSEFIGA

SMILES: CN(C)C/C=C/C(=O)Nc1ccc(C(=O)N2CCCC(Nc3ncc(Cl)c(-c4c[nH]c5ccccc45)n3)C2)cc1 (stereo not given)
- % of control [1]: 94%

SMILES: N#Cc1cccc(-c2c[nH]c3ncnc(N4CCOCC4)c23)c1
- % of control [5]: 100%
- % of control [6]: 95%

SMILES: CNC(=O)Nc1ccc(-c2nc(N3CC4CCC(C3)O4)c3cnn(C4CCC5(CC4)OCCO5)c3n2)cc1
- % of control [7]: 84%
- % of inhibition [8]: -2%
- % of control [9]: 84%

Other lines, results leading:

- % of inhibition [2]: -51.9%
SMILES: CC[C@@H]1[C@H](F)C(=O)N[C@@H]1COc1nccc2cc(C(N)=O)c(OC)cc12 [ZIMLOVISERTIB]

- % of control [3]: 100%
SMILES: CCN(CC)CCCCNc1ncc2cc(-c3cc(OC)cc(OC)c3)c(NC(=O)NC(C)(C)C)nc2n1

- % of control ([4]; at 1 µM): 91%
- % of control ([4]; at 5 µM): 92%
SMILES: C=CC(=O)Nc1cccc(C(=O)Nc2ccc(Nc3cc(-c4[nH]c(SC)nc4C)ccn3)cc2)c1
